Experimental data published in ChEMBL document CHEMBL6071211, “Invention of VH-937, a Potent HIV-1 Maturation Inhibitor with the Potential for Infrequent Oral Dosing in Humans” (ACS Med Chem Lett, 2024).

Legend:
[1] = system: Human immunodeficiency virus 1; experiment: In vitro antiviral activity against fully replicating wild type HIV1 NL4-3; format: functional, organism-based
[2] = system: Human immunodeficiency virus 1; experiment: In vitro antiviral activity against fully replicating wild type HIV1 NL4-3 in presence of human serum; format: functional, organism-based
[3] = system: Human immunodeficiency virus 1; experiment: In vitro antiviral activity against fully replicating HIV1 NL4-3 harboring Gag T332S/V362I/prR41G mutant; format: functional, organism-based
[4] = system: Human immunodeficiency virus 1; experiment: In vitro antiviral activity against fully replicating HIV1 NL4-3 harboring Gag A364V mutant; format: functional, organism-based
[5] = system: Human immunodeficiency virus 1; experiment: Binding affinity to HIV1 Gag A364V mutant assessed as dissociation half life by virus-like particle (VLP) assay
[6] = Human immunodeficiency virus 1, NL4-3

Row | Structure (SMILES) | EC50 [1, 6] | EC50 [2, 6] | EC50 [3, 6] | EC50 [4, 6] | EC50 [1] | EC50 [2] | EC50 [4] | EC50 [3] | T1/2 [5]
1 | C=C(C)[C@@H]1CC[C@]2(NCCN3CCS(=O)(=O)CC3)CC[C@]3(C)[C@H](CC[C@@H]4[C@@]5(C)CC=C(C6=CCC(COc7ccccn7)(C(=O)O)CC6)C(C)(C)[C@@H]5CC[C@]43C)[C@@H]12 (mixture of isomers) | 2.6 nM | 61 nM | 14.3 nM | 11.3 nM |  |  |  |  | 
2 | C=C(C)[C@@H]1CC[C@]2(NCCN3CCS(=O)(=O)CC3)CC[C@]3(C)[C@H](CC[C@@H]4[C@@]5(C)CC=C(C6=CCC(COc7ccc(F)cc7)(C(=O)O)CC6)C(C)(C)[C@@H]5CC[C@]43C)[C@@H]12 (mixture of isomers) | 4.7 nM | 74.5 nM | 26.5 nM | 21.7 nM |  |  |  |  | 
3 | C=C(C)[C@@H]1CC[C@]2(NCCN3CCS(=O)(=O)CC3)CC[C@]3(C)[C@H](CC[C@@H]4[C@@]5(C)CC=C(C6=CCC(COc7ccc(Cl)cc7)(C(=O)O)CC6)C(C)(C)[C@@H]5CC[C@]43C)[C@@H]12 (stereo in doubt; 8) |  |  | 49.6 nM |  | 29.4 nM | 149 nM | 75.3 nM |  | 
4 | C=C(C)[C@@H]1CC[C@]2(NCCN3CCS(=O)(=O)CC3)CC[C@]3(C)[C@H](CC[C@@H]4[C@@]5(C)CC=C(C6=CCC(COc7cccc(Cl)c7)(C(=O)O)CC6)C(C)(C)[C@@H]5CC[C@]43C)[C@@H]12 (mixture of isomers) | 10.7 nM | 22 nM | 49.2 nM | 16.8 nM |  |  |  |  | 
5 | C=C(C)[C@@H]1CC[C@]2(NCCN3CCS(=O)(=O)CC3)CC[C@]3(C)[C@H](CC[C@@H]4[C@@]5(C)CC=C(C6=CCC(COc7cc(C#N)ccn7)(C(=O)O)CC6)C(C)(C)[C@@H]5CC[C@]43C)[C@@H]12 (mixture of isomers) | 0.9 nM | 46.3 nM | 64.1 nM | 71.8 nM |  |  |  |  | 
6 | C=C(C)[C@@H]1CC[C@]2(NCCN3CCS(=O)(=O)CC3)CC[C@]3(C)[C@H](CC[C@@H]4[C@@]5(C)CC=C(C6=CCC(COc7ccc(C#N)cn7)(C(=O)O)CC6)C(C)(C)[C@@H]5CC[C@]43C)[C@@H]12 (mixture of isomers) | 1.9 nM | 34.3 nM | 232 nM | 28.8 nM |  |  |  |  | 
7 | C=C(C)[C@@H]1CC[C@]2(NCCN3CCS(=O)(=O)CC3)CC[C@]3(C)[C@H](CC[C@@H]4[C@@]5(C)CC=C(C6=CCC(COc7ccccc7F)(C(=O)O)CC6)C(C)(C)[C@@H]5CC[C@]43C)[C@@H]12 (mixture of isomers) | 6.1 nM | 58.4 nM | 19.3 nM | 27.3 nM |  |  |  |  | 
8 | C=C(C)[C@@H]1CC[C@]2(NCCN3CCS(=O)(=O)CC3)CC[C@]3(C)[C@H](CC[C@@H]4[C@@]5(C)CC=C(C6=CC[C@](COc7ccccn7)(C(=O)O)CC6)C(C)(C)[C@@H]5CC[C@]43C)[C@@H]12 | 1.6 nM | 54.9 nM | 8.8 nM | 5.8 nM |  |  |  |  | 
9 | C=C(C)[C@@H]1CC[C@]2(NCCN3CCS(=O)(=O)CC3)CC[C@]3(C)[C@H](CC[C@@H]4[C@@]5(C)CC=C(C6=CCC(COc7ccncn7)(C(=O)O)CC6)C(C)(C)[C@@H]5CC[C@]43C)[C@@H]12 (mixture of isomers) | 1.7 nM | 23.4 nM | 68.6 nM | 10 nM |  |  |  |  | 
10 | C=C(C)[C@@H]1CC[C@]2(NCCN3CCS(=O)(=O)CC3)CC[C@]3(C)[C@H](CC[C@@H]4[C@@]5(C)CC=C(C6=CCC(COc7ccccc7Cl)(C(=O)O)CC6)C(C)(C)[C@@H]5CC[C@]43C)[C@@H]12 (mixture of isomers) | 9.7 nM | 59.7 nM | 23.1 nM | 20.1 nM |  |  |  |  | 
11 | C=C(C)[C@@H]1CC[C@]2(NCCN3CCS(=O)(=O)CC3)CC[C@]3(C)[C@H](CC[C@@H]4[C@@]5(C)CC=C(C6=CCC(COc7nnnn7C)(C(=O)O)CC6)C(C)(C)[C@@H]5CC[C@]43C)[C@@H]12 (mixture of isomers) | 1.7 nM | 36 nM | 6.8 nM | 24.2 nM |  |  |  |  | 
12 | C=C(C)[C@@H]1CC[C@]2(NCCN3CCS(=O)(=O)CC3)CC[C@]3(C)[C@H](CC[C@@H]4[C@@]5(C)CC=C(C6=CC[C@@](COc7ccccn7)(C(=O)O)CC6)C(C)(C)[C@@H]5CC[C@]43C)[C@@H]12 | 3.5 nM | 44.9 nM | 19.2 nM | 7.2 nM |  |  |  |  | 
13 | C=C(C)[C@@H]1CC[C@]2(NCCN3CCS(=O)(=O)CC3)CC[C@]3(C)[C@H](CC[C@@H]4[C@@]5(C)CC=C(C6=CCC(COc7cccnc7)(C(=O)O)CC6)C(C)(C)[C@@H]5CC[C@]43C)[C@@H]12 (mixture of isomers) | 1.9 nM | 36.7 nM | 5.8 nM | 26.9 nM |  |  |  |  | 
14 | C=C(C)[C@@H]1CC[C@]2(NCCN3CCS(=O)(=O)CC3)CC[C@]3(C)[C@H](CC[C@@H]4[C@@]5(C)CC=C(C6=CCC(COc7ccccc7)(C(=O)O)CC6)C(C)(C)[C@@H]5CC[C@]43C)[C@@H]12 (mixture of isomers) | 5 nM | 58.4 nM | 27.8 nM | 19.7 nM |  |  |  |  | 
15 | C=C(C)[C@@H]1CC[C@]2(NCCN3CCS(=O)(=O)CC3)CC[C@]3(C)[C@H](CC[C@@H]4[C@@]5(C)CC=C(C6=CCC(COCc7ccccc7)(C(=O)O)CC6)C(C)(C)[C@@H]5CC[C@]43C)[C@@H]12 (mixture of isomers) | 7.8 nM | 98.2 nM | 22.1 nM | 49.8 nM |  |  |  |  | 
16 | C=C(C)[C@@H]1CC[C@]2(NCCN3CCS(=O)(=O)CC3)CC[C@]3(C)[C@H](CC[C@@H]4[C@@]5(C)CC=C(C6=CCC(COc7cccc(F)c7)(C(=O)O)CC6)C(C)(C)[C@@H]5CC[C@]43C)[C@@H]12 (mixture of isomers) | 8.3 nM | 14.8 nM | 34.3 nM | 55.7 nM |  |  |  |  | 
17 | C=C(C)[C@@H]1CC[C@]2(NCCN3CCS(=O)(=O)CC3)CC[C@]3(C)[C@H](CC[C@@H]4[C@@]5(C)CC=C(C6=CC[C@@](COc7cnccn7)(C(=O)O)CC6)C(C)(C)[C@@H]5CC[C@]43C)[C@@H]12 | 2.8 nM | 48.1 nM | 14.7 nM | 21.4 nM |  |  |  |  | 
18 | C=C(C)[C@@H]1CC[C@]2(NCCN3CCS(=O)(=O)CC3)CC[C@]3(C)[C@H](CC[C@@H]4[C@@]5(C)CC=C(C6=CCC(COc7ncccn7)(C(=O)O)CC6)C(C)(C)[C@@H]5CC[C@]43C)[C@@H]12 (mixture of isomers) | 1.8 nM | 52.1 nM | 12.6 nM | 4.5 nM |  |  |  |  | 
19 | C=C(C)[C@@H]1CC[C@]2(NCCN3CCS(=O)(=O)CC3)CC[C@]3(C)[C@H](CC[C@@H]4[C@@]5(C)CC=C(C6=CC[C@@](COc7ncccc7C#N)(C(=O)O)CC6)C(C)(C)[C@@H]5CC[C@]43C)[C@@H]12 [ZEGRUVIRIMAT] | 2.5 nM | 41.1 nM | 5.8 nM | 52.6 nM |  |  |  |  | 
20 | C=C(C)[C@@H]1CC[C@]2(NCCN3CCS(=O)(=O)CC3)CC[C@]3(C)[C@H](CC[C@@H]4[C@@]5(C)CC=C(C6=CCC(COc7ccncc7)(C(=O)O)CC6)C(C)(C)[C@@H]5CC[C@]43C)[C@@H]12 (mixture of isomers) | 2.1 nM | 33.3 nM | 14.2 nM | 34.6 nM |  |  |  |  | 
21 | C=C(C)[C@@H]1CC[C@]2(NCCN3CCS(=O)(=O)CC3)CC[C@]3(C)[C@H](CC[C@@H]4[C@@]5(C)CC=C(C6=CCC(COc7cccc(C#N)n7)(C(=O)O)CC6)C(C)(C)[C@@H]5CC[C@]43C)[C@@H]12 (mixture of isomers) | 13.9 nM | 15.7 nM | 15.8 nM | 26.4 nM |  |  |  |  | 
22 | C=C(C)[C@@H]1CC[C@]2(NCCN3CCS(=O)(=O)CC3)CC[C@]3(C)[C@H](CC[C@@H]4[C@@]5(C)CC=C(C6=CCC(COc7ccc(Cl)cc7)(C(=O)O)CC6)C(C)(C)[C@@H]5CC[C@]43C)[C@@H]12 (stereo in doubt; 9) |  |  |  |  | 3.2 nM | 9.9 nM | 244 nM | 85.3 nM | 
23 | C=C(C)[C@@H]1CC[C@]2(NCCN3CCS(=O)(=O)CC3)CC[C@]3(C)[C@H](CC[C@@H]4[C@@]5(C)CC=C(C6=CC[C@@](CF)(C(=O)O)CC6)C(C)(C)[C@@H]5CC[C@]43C)[C@@H]12 [FIPRAVIRIMAT] |  | 13.9 nM |  |  |  |  |  |  | < 1 min
24 | C=C(C)[C@@H]1CC[C@]2(NCCN3CCS(=O)(=O)CC3)CC[C@]3(C)[C@H](CC[C@@H]4[C@@]5(C)CC=C(c6ccc(C(=O)O)cc6)C(C)(C)[C@@H]5CC[C@]43C)[C@@H]12 |  |  |  |  |  |  |  |  | < 1 min
25 | C=C(C)[C@@H]1CC[C@]2(NCCN3CCS(=O)(=O)CC3)CC[C@]3(C)[C@H](CC[C@@H]4[C@@]5(C)CC=C(C6=CCC(COc7cccnn7)(C(=O)O)CC6)C(C)(C)[C@@H]5CC[C@]43C)[C@@H]12 (mixture of isomers) | 2.6 nM | 59.8 nM | 47.2 nM | 3.5 nM |  |  |  |  | 
26 | C=C(C)[C@@H]1CC[C@]2(NCCN3CCS(=O)(=O)CC3)CC[C@]3(C)[C@H](CC[C@@H]4[C@@]5(C)CC=C(C6=CCC(COc7nccs7)(C(=O)O)CC6)C(C)(C)[C@@H]5CC[C@]43C)[C@@H]12 (mixture of isomers) | 3.6 nM | 24.5 nM | 38.9 nM | 2.4 nM |  |  |  |  | 
